Laboratory results: the supplement of paper PMC10307832

Legend:
Assay in all cases: relative viability (nuclei count vs DMSO), 5 days (fraction); higher = more cells survive
Carfilzomib + Linsitinib = compound: CC(C)C[C@H](NC(=O)[C@H](CCc1ccccc1)NC(=O)CN1CCOCC1)C(=O)N[C@@H](Cc1ccccc1)C(=O)N[C@@H](CC(C)C)C(=O)[C@@]1(C)CO1 [Carfilzomib] + C[C@]1(O)C[C@@H](c2nc(-c3ccc4ccc(-c5ccccc5)nc4c3)c3c(N)nccn32)C1 [Linsitinib] (partner 1 µM)
Method in brief: (§1)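 A single step with final 0.05% Triton X-100, 1% formaldehyde and 1 ug/ml Hoechst fixed the cells and stained nuclei 5 days after treatment. Lung cancer cell lines in 1536-well plates had been treated by pin tool the day after seeding with one drug alone or a fixed anchor-drug dose plus five library-drug doses (not always all listed) in √10 steps, and nuclei were counted on 4× images. Relative viability is the ratio of nuclei in treated wells to nuclei in vehicle wells, taken as the median of duplicate plates.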

Carfilzomib + Dasatinib = compound: CC(C)C[C@H](NC(=O)[C@H](CCc1ccccc1)NC(=O)CN1CCOCC1)C(=O)N[C@@H](Cc1ccccc1)C(=O)N[C@@H](CC(C)C)C(=O)[C@@]1(C)CO1 [Carfilzomib] + Cc1nc(Nc2ncc(C(=O)Nc3c(C)cccc3Cl)s2)cc(N2CCN(CCO)CC2)n1 [Dasatinib] (partner 0.075 µM)
Method in brief: as §1

Crizotinib + Alpelisib = compound: C[C@@H](Oc1cc(-c2cnn(C3CCNCC3)c2)cnc1N)c1c(Cl)ccc(F)c1Cl [Crizotinib] + Cc1nc(NC(=O)N2CCC[C@H]2C(N)=O)sc1-c1ccnc(C(C)(C)C(F)(F)F)c1 [Alpelisib] (partner 2 µM)
Method in brief: as §1

Olaparib + Navitoclax = compound: O=C(c1cc(Cc2n[nH]c(=O)c3ccccc23)ccc1F)N1CCN(C(=O)C2CC2)CC1 [Olaparib] + CC1(C)CCC(c2ccc(Cl)cc2)=C(CN2CCN(c3ccc(C(=O)NS(=O)(=O)c4ccc(N[C@H](CCN5CCOCC5)CSc5ccccc5)c(S(=O)(=O)C(F)(F)F)c4)cc3)CC2)C1 [Navitoclax] (partner 0.5 µM)
Method in brief: as §1

Olaparib + OSI-027 = compound: O=C(c1cc(Cc2n[nH]c(=O)c3ccccc23)ccc1F)N1CCN(C(=O)C2CC2)CC1 [Olaparib] + COc1cccc2cc(-c3nc([C@H]4CC[C@H](C(=O)O)CC4)n4ncnc(N)c34)[nH]c12 [OSI-027] (partner 0.5 µM)
Method in brief: as §1

**Q.** What does the source list for NCI-H1793?
**A.** relative viability (Carfilzomib + Linsitinib; first compound 0.003162 µM): 0.737; relative viability (Carfilzomib + Linsitinib; first compound 0.01 µM): 0.761; relative viability (Carfilzomib + Linsitinib; first compound 0.03162 µM): 0.939; relative viability (Carfilzomib + Linsitinib; first compound 0.1 µM): 0.585; relative viability (Carfilzomib + Dasatinib; first compound 0.003162 µM): 0.507; relative viability (Carfilzomib + Dasatinib; first compound 0.01 µM): 0.353; relative viability (Carfilzomib + Dasatinib; first compound 0.03162 µM): 0.376; relative viability (Carfilzomib + Dasatinib; first compound 0.1 µM): 0.389; relative viability (Crizotinib + Alpelisib; first compound 0.01 µM): 0.703; relative viability (Crizotinib + Alpelisib; first compound 0.03162 µM): 0.789; relative viability (Crizotinib + Alpelisib; first compound 0.1 µM): 0.729; relative viability (Crizotinib + Alpelisib; first compound 1 µM): 0.872; relative viability (Olaparib + Navitoclax; first compound 0.08 µM): 0.406; relative viability (Olaparib + Navitoclax; first compound 0.253 µM): 0.421; relative viability (Olaparib + Navitoclax; first compound 2.53 µM): 0.416; relative viability (Olaparib + Navitoclax; first compound 8 µM): 0.385; relative viability (Olaparib + OSI-027; first compound 0.08 µM): 0.279; relative viability (Olaparib + OSI-027; first compound 0.253 µM): 0.295; relative viability (Olaparib + OSI-027; first compound 2.53 µM): 0.29; relative viability (Olaparib + OSI-027; first compound 8 µM): 0.243
